This experiment addresses T1, human TLR7 (Homo sapiens, UniProt Q9NYK1).
T1 construct: host or cells: HEK293 (HEK-Blue hTLR7)
T1 sequence (Q9NYK1 27-1049): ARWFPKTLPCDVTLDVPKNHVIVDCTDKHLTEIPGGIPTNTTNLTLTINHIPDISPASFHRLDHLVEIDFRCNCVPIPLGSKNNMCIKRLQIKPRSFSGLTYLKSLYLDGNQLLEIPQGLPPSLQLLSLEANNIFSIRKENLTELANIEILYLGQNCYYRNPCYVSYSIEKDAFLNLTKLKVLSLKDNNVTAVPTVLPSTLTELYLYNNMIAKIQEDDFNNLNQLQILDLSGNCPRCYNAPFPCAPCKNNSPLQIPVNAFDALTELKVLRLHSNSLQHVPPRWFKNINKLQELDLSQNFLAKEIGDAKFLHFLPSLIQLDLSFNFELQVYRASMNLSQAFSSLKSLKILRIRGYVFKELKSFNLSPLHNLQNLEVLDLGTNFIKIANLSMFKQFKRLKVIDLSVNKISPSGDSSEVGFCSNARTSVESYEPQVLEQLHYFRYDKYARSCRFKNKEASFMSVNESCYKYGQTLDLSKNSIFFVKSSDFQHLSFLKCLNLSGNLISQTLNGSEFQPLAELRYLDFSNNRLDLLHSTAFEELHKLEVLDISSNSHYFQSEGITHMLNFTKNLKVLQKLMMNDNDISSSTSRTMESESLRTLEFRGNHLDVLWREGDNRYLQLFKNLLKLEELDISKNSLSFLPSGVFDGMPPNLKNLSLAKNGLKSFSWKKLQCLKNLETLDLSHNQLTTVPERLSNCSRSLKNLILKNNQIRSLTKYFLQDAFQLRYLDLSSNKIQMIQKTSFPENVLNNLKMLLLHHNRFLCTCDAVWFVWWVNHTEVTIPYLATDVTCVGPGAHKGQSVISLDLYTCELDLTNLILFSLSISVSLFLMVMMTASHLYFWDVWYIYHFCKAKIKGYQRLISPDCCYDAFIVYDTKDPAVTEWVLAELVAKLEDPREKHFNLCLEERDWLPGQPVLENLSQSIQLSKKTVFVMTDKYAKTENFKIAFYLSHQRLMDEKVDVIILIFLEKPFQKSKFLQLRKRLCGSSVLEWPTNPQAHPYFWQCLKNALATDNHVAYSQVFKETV
The experiment is described as follows: HEK293-Blue hTLR7 Reporter Assay (QUANTI-BLUE, SEAP readout). The format is cell-based. Conditions: HEK-Blue-hTLR7 cells. As for the experimental part:
HEK293-Blue hTLR7 Reporter Assay: HEK-Blue-hTLR7 cell line (Invivogen, Cat. No. hkb-htlr7) was designed so that the expression of the secreted embryonic alkaline phosphatase (SEAP) was induced by activating NF-κ and AP-1 via stimulating human TLR7 with TLR7 agonists. HEK-Blue-hTLR7 cells were seeded at a density of 4×10^4 cells/well in a volume of 180 μL in a 96-well plate in DMEM (Cat. No. 11965-092) supplemented with 10% (v/v) heat-inactivated fetal bovine serum (FBS) (Gibco, 10099-1441), 100 U/ml penicillin and 100 μg/ml streptomycin (Gibco, 15140122) containing 50 U/mL penicillin, […] and 10% (v/v) heat-inactivated fetal bovine serum. The cells were settled for 5 hrs, then treated with increasing amounts of tested compounds at 37° C. for 24 hrs. Then 20 μL of the supernatant from each well was incubated with 180 μL Quanti-blue substrate solution at 37° C. for 10-30 mins before the activity of the SEAP was determined at 620-655 nm using a spectrophotometer. The EC50 value for each compound was calculated with GraphPad Prism software using the sigmoidal dose-response function.

The mark [1] stands for this setting: 24 hrs treatment, Table 1, B1-B232.

In general, EC50 refers to the concentration at which the effect is half-maximal.

Under setting [1], `CCC[C@H](C)Nc1nc(N)c2ncc(Cc3cnc(N4CCC(N(C)C)CC4)c(C)c3)n2n1` (single isomer, unassigned) [Compound B173] showed a concentration for a half-maximal effect (EC50) of 0.0023 µM. This lies in the single-digit nanomolar range.

Turning to `CCC[C@@H](CCO)Nc1nc(N)c2ncc(Cc3cnc(N4CCNCC4)c(C)c3)n2n1` [Compound B226, (S)-3-((4-amino-7-((5-methyl-6-(piperazin-1-yl)pyridin-3-yl)methyl)imidazo[2,1-f][1,2,4]triazin-2-yl)amino)hexan-1-ol], the EC50 under setting [1] is 0.046 µM.

Under setting [1], `CCCCOc1nc(N)c2ncc(Cc3cnc(N4CCN(C(=O)[C@@H](N)[C@@H](C)CC)CC4)c(C)c3)n2n1` [Compound B67, (2S,3S)-2-amino-1-(4-(5-((4-amino-2-butoxyimidazo[2,1-f][1,2,4]triazin-7-yl)methyl)-3-methylpyridin-2-yl)piperazin-1-yl)-3-methylpentan-1-one] returned an EC50 of 0.336 µM. This EC50 lies about 7.3-fold higher than the previous one.

Molecule `CCCC(CC)Oc1nc(N)c2ncc(Cc3cnc(N4CCN(C(=O)CN(C)C)CC4)c(C)c3)n2n1` (stereo not shown) [Compound B169, 1-(4-(5-((4-amino-2-(hexan-3-yloxy)imidazo[2,1-f][1,2,4]triazin-7-yl)methyl)-3-methylpyridin-2-yl)piperazin-1-yl)-2-(dimethylamino)ethan-1-one] yielded a half-maximal effective concentration (EC50) under setting [1] of 0.0029 µM. This EC50 lies about 120-fold lower than the previous one.

On to `CCCCOc1nc(N)c2ncc(Cc3cnc(N4CC(C)NC(C)C4)c(C)c3)n2n1` (stereo not shown) [Compound B55, 2-butoxy-7-((6-(3,5-dimethylpiperazin-1-yl)-5-methylpyridin-3-yl)methyl)imidazo[2,1-f][1,2,4]triazin-4-amine], for which the 50% effective concentration (EC50) under setting [1] was 0.196 µM.

Regarding `Cc1cc(Cc2cnc3c(N)nc(OC4CCCC4)nn23)cnc1N1CCNCC1` [Compound B172, 2-(cyclopentyloxy)-7-((5-methyl-6-(piperazin-1-yl)pyridin-3-yl)methyl)imidazo[2,1-f][1,2,4]triazin-4-amine], a half-maximal effect under setting [1] (EC50) was put at 0.26 µM.

Under setting [1], `CCCCOc1nc(N)c2ncc(Cc3cnc(N4CCC(N5CCOCC5)CC4)c(C)c3)n2n1` [Compound B108, 2-butoxy-7-((5-methyl-6-(4-morpholinopiperidin-1-yl)pyridine-3-yl)methyl)imidazo[2,1-f][1,2,4]triazin-4-amine] registered an EC50 of 0.159 µM. Compared with the last molecule, the EC50 is about 1.6-fold lower.

In turn, `CCCC(CCC)Nc1nc(N)c2ncc(Cc3cnc(N4CCNCC4)c(C)c3)n2n1` [Compound B191, N2-(heptan-4-yl)-7-((5-methyl-6-(piperazin-1-yl)pyridin-3-yl)methyl)imidazo[2,1-f][1,2,4]triazine-2,4-diamine] came in with a concentration for a half-maximal effect (EC50) under setting [1] of 0.0079 µM.

With `CCCC(C)Nc1nc(N)c2ncc(Cc3cnc(N4CCC(N(C)C)CC4)c(C)c3)n2n1` (stereo not shown) [Compound B138, 7-((6-(4-(dimethylamino)piperidin-1-yl)-5-methylpyridin-3-yl)methyl)-N^2-(pentan-2-yl)imidazo[2,1-f][1,2,4]triazine-2,4-diamine], the concentration for a half-maximal effect (EC50) under setting [1] came to 0.0055 µM. This EC50 and that of the molecule before are within 1.5-fold of each other.

In turn, `CCCCOc1nc(N)c2ncc(Cc3cnc(N4CCN[C@@H](C)C4)c(C)c3)n2n1` [Compound B132, (S)-2-butoxy-7-((5-methyl-6-(3-methylpiperazin-1-yl)pyridin-3-yl)methyl)imidazo[2,1-f][1,2,4]triazin-4-amine] had a concentration giving a half-maximal response (EC50) under setting [1] of 0.048 µM.

For `CCC[C@H](CC)Oc1nc(N)c2ncc(Cc3cnc(N4CCNCC4)c(C)c3)n2n1` (single isomer, unassigned) [Compound B224], it took 0.0051 µM to reach a half-maximal effect under setting [1] (EC50).

“6-propoxy-3-(4-(pyrrolidin-1-ylmethyl)benzyl)imidazo[1,2-b]pyridazin-8-amine [Compound C4]” registered an EC50 (Table 2, C1-C6) of more than 10 µM.

On to `CCC[C@@H](C)Nc1nc(N)c2ncc(Cc3cnc(N4CCC(CN(C)C)CC4)c(C)c3)n2n1` (single isomer, unassigned) [Compound B178], for which the EC50 under setting [1] stood at 0.017 µM. That is a double-digit nanomolar value.

For the molecule `CCCC(CC)Oc1nc(N)c2ncc(Cc3cnc(N4CCC(CN(C)C)CC4)c(C)c3)n2n1` (stereo not shown) [Compound B164, 7-((6-(4-((dimethylamino)methyl)piperidin-1-yl)-5-methylpyridin-3-yl)methyl)-2-(hexan-3-yloxy)imidazo[2,1-f][1,2,4]triazin-4-amine], the 50% effective concentration (EC50) under setting [1] was found to be 0.0041 µM.

`CCC[C@@H](C)Oc1nc(N)c2ncc(Cc3cnc(N4CCNCC4)c(C)c3)n2n1` [Compound B117, (R)-7-((5-methyl-6-(piperazin-1-yl)pyridin-3-yl)methyl)-2-(pentan-2-yloxy)imidazo[2,1-f][1,2,4]triazin-4-amine] came in with an EC50 under setting [1] of 0.062 µM.

Consider `CCCC(C)Nc1nc(N)c2ncc(Cc3cnc(N4CCC(NC)CC4)c(C)c3)n2n1` (stereo not shown) [Compound B166, 7-((5-methyl-6-(4-(methylamino)piperidin-1-yl)pyridin-3-yl)methyl)-N2-(pentan-2-yl)imidazo[2,1-f][1,2,4]triazine-2,4-diamine], for which, under setting [1], a half-maximal response (EC50) required 0.0026 µM. This EC50 is about 24-fold lower than that of the molecule before.

The molecule `COCC(C)Oc1nc(N)c2ncc(Cc3cnc(N4CCNCC4)c(C)c3)n2n1` (stereo not shown) [Compound B174, 2-((1-methoxypropan-2-yl)oxy)-7-((5-methyl-6-(piperazin-1-yl)pyridin-3-yl)methyl)imidazo[2,1-f][1,2,4]triazin-4-amine] showed a 50% effective concentration (EC50) under setting [1] of 0.048 µM.

For `CCCCOc1nc(N)c2ncc(Cc3cnc(N4C[C@H]5C[C@@H]4CN5)c(C)c3)n2n1` [Compound B79, 7-((6-((1R,4R)-2,5-diazabicyclo[2.2.1]heptan-2-yl)-5-methylpyridin-3-yl)methyl)-2-butoxyimidazo[2,1-f][1,2,4]triazin-4-amine], under setting [1], the half-maximal effective concentration (EC50) was 0.505 µM.

Under setting [1], `CCCC(C)Oc1nc(N)c2ncc(Cc3cnc(N4CCN(C(=O)CN(C)C)CC4)c(C)c3)n2n1` (stereo not shown) [Compound B94, 1-(4-(5-((4-amino-2-(pentan-2-yloxy)imidazo[2,1-f] [1,2,4]triazin-7-yl)methyl)-3-methylpyridin-2-yl)piperazin-1-yl)-2-(dimethylamino)ethan-1-one] displayed a half-maximal effective concentration (EC50) of 0.013 µM.

Turning to `CCCCOc1nc(N)c2ncc(Cc3cnc(N4CCC(NC)CC4)c(C)c3)n2n1` [Compound B161, 2-butoxy-7-((5-methyl-6-(4-(methylamino)piperidin-1-yl)pyridin-3-yl)methyl)imidazo[2,1-f][1,2,4]triazin-4-amine], under setting [1], a half-maximal response (EC50) required 0.011 µM.

Take `CCCCNc1nc(N)c2ncc(Cc3cnc(N4CCC(N(C)C)CC4)c(C)c3)n2n1` [Compound B135, N2-butyl-7-((6-(4-(dimethylamino)piperidin-1-yl)-5-methylpyridin-3-yl)methyl)imidazo[2,1-f][1,2,4]triazine-2,4-diamine]: under setting [1], the EC50 turned out to be 0.022 µM.

As to `CCCC(C)Oc1nc(N)c2ncc(Cc3cnc(N4CCC(CNC)CC4)c(C)c3)n2n1` (stereo not shown) [Compound B205, 7-((5-methyl-6-(4-((methylamino)methyl)piperidin-1-yl)pyridin-3-yl)methyl)-2-(pentan-2-yloxy)imidazo[2,1-f][1,2,4]triazin-4-amine], a half-maximal response under setting [1] (EC50) required 0.0065 µM.

Molecule `CCCCOc1nc(N)c2ncc(Cc3cnc(N4CCC5(CCNCC5)C4)c(C)c3)n2n1` [Compound B101, 2-butoxy-7-((5-methyl-6-(2,8-diazaspiro[4.5]decan-2-yl)pyridin-3-yl)methyl)imidazo[2,1-f][1,2,4]triazin-4-amine] yielded an EC50 under setting [1] of 0.425 µM. Against the preceding molecule, the EC50 is about 65-fold higher.

In the case of `CCCCOc1nc(N)c2ncc(Cc3cnc(N4CCN(C(=O)[C@@H](N)C(C)C)CC4)c(C)c3)n2n1` [Compound B70, (S)-2-amino-1-(4-(5-((4-amino-2-butoxyimidazo[2,1-f][1,2,4]triazin-7-yl)methyl)-3-methylpyridin-2-yl)piperazin-1-yl)-3-methylbutan-1-one], the half-maximal effective concentration (EC50) under setting [1] was found to be 0.212 µM.

Consider `CCCCOc1nc(N)c2ncc(Cc3cnc(N4CCC(N)CC4)c(C)c3)n2n1` [Compound B60, 7-((6-(4-aminopiperidin-1-yl)-5-methylpyridin-3-yl)methyl)-2-butoxyimidazo[2,1-f][1,2,4]triazin-4-amine], for which, under setting [1], it took 0.05 µM to reach a half-maximal effect (EC50). This EC50 is about 4.2-fold lower than that of the molecule before.

Values taken from patent publication US12612407B2, “Imidazo[2,1-f][1,2,4]triazin-4-amine derivatives as TLR7 agonist” (BEIGENE, LTD., priority 2020, dated 2026).
